Laboratory results as given in patent publication US8575112B2, “Small peptide modulators of potassium channel trafficking” (University of Houston System, priority 2009, dated 2013).

How the values were obtained:
Format in all cases: cell-based
Slo1VEDEC = assay: Cell-surface biotinylation assay, HEK293T cells expressing Myc-Slo1VEDEC, after peptide delivery; details: HEK293T cells expressing Myc-tagged Slo1VEDEC, 1 mg peptide delivered with PULSin, compared to R-PE control
Method: (§1) HEK293T (human embryonic kidney) cells were grown in Dulbecco's modified Eagle's medium (Invitrogen) containing heat-inactivated 10% fetal bovine serum (FBS) and penicillin-streptomycin (Invitrogen) at 37° C. in a 5% CO2 incubator. Cells were transiently transfected for 24 to 48 hours using Lipofectamine 2000 (Invitrogen) in the serum-reduced medium OPTI-MEM, Invitrogen) following the manufacturer's instructions. The immortalized and undifferentiated mouse podocyte cell line was grown in RPMI1640 with 10% FBS supplied with 10 U/mL interferon-g (INF-γ) at 33° C. in a 5% CO2 incubator. Podocytes' differentiation was induced by removing INF-γ and switching to 37° C. in a 5% CO2 incubator for 14 days.
(§2) Cell-surface biotinylation was carried out by labeling cells with 1 mg/mL EZ-Link Sulfo-NHS-Biotin reagents (Pierce) in PBS (137 mM NaCl, 10 mM Phosphate, 2.7 mM KCl, pH 7.4) at 4 C with gentle shaking for 1.5 hours, which was followed by incubating the labeled cells in the cold PBS containing 100 mM glycine for additional 20 minutes at 4° C. to stop the reaction. […]
(§3) All samples were loaded and separated on 10% SDS-PAGE. […] Slo1 proteins were detected by primary antibodies, including mouse anti-Myc, mouse anti-HA, rabbit anti-VEDEC, rabbit anti-QEERL, and rabbit anti-Slo1 (APC107, Alomone labs) antibodies, as indicated. […]

[1] = test system: endogenous Ca2+-activated K+ channels (BKCa) in podocytes; assay: Whole-cell recordings from differentiated mouse podocytes after peptide delivery
Method: FIG. 7A depicts whole cell recording analyses are carried out in differentiated mouse podocytes treated with either R-PE (control) or IREVEDEC (SEQ ID NO: 9) peptides. The recording electrode contained free Ca^2+ of 5 μM and currents are evoked by a series of depolarizing steps from a holding potential of −60 mV. Representative whole-cell current traces are shown above bar graphs Left: R-PE control (Ctrl); Right: IREVEDEC (SEQ ID NO: 9) peptides. […] Asterisk indicates p<0.05.
as §1
Whole cell recordings were performed in HEK293T transiently expressing different Slo1 constructs using standard methods. […]

Slo1QEERL = assay: Cell-surface biotinylation assay, HEK293T cells expressing Myc-Slo1QEERL, after peptide delivery; details: HEK293T cells expressing Myc-tagged Slo1QEERL by itself; 1 mg peptide delivered with PULSin; compared to R-PE control
Method: as §1, §2, §3

[2] = test system: heterologously and endogenously expressed Slo1 channels; assay: Intracellular delivery of VEDEC-motif peptides, surface expression of Slo1 channels (summary statement); details: intracellular delivery of peptide

Sequence: IREVEDEC (Octopetide modulator of Calcium activated Potassium channels) [NH2-IREVEDEC-COOH, octopeptide containing the VEDEC motif, synthesized by Peptide 2.0]
- total expression of Slo1VEDEC (Slo1VEDEC): no effect
- surface expression of Slo1VEDEC (Slo1VEDEC; densitometry of immunoblots): increases
- current through Ca2+-activated K+ channels (current density at +60 mV) ([1]; differentiated mouse podocytes, 3 mg octopeptide with PULSin, electrode free Ca2+ 5 μM, vs R-PE control, n=33 cells, p<0.05): large increase
- activation or deactivation kinetics of macroscopic currents ([1]; mouse podocytes, whole-cell recording, data not shown): does not alter
- surface expression of Slo1QEERL (Slo1QEERL): no effect
- total expression of Slo1QEERL (Slo1QEERL): no effect
- surface expression of heterologously and endogenously expressed Slo1 (BKCa) channels [2]: increase
